Source: patent publication EP3009422A1, “Photo-switchable sulfonylureas and their uses” (Ludwig-Maximilians-Universität München, priority 2014, dated 2016)

Tests used:
[1] = system: human islets; experiment: Calcium imaging in isolated human islets of Langerhans; assay type: cell-based; settings: JB253-treated human islets, 440 nm and 491 nm
Experimental: Human islets were isolated from deceased heart-beating donors (n = 3) at transplantation facilities in Pisa and Edmonton with the relevant national and local ethical permissions, including consent from next of kin where required, and cultured in RPMI supplemented with 5.5 mM D-glucose, 10% foetal calf serum (FCS), 100 U penicillin, 100 µg streptomycin and 0.25/µl fungizone (37 °C, 5% CO2). All studies involving human tissue were approved by the National Research Ethics Committee (NRES) London (Fulham), REC # 07/H0711/114.
Islets were loaded for 30-45 min in fluo2-AM (10 µM) or for 2-5 min with X-Rhod 1 (5 µM) diluted with a mixture of DMSO (0.01%, wt/vol) and pluronic acid (0.001%, wt/vol; all Invitrogen) in a bicarbonate buffer containing in mM: 120 NaCl, 4.8 KCl, 1.25 NaH2PO4, 24 NaHCO3, 2.5 CaCl2, 1.2 MgCl2 and 5 D-glucose. fMCI was performed using a Zeiss Axiovert M200 fitted with a Nipkow spinning-disk head (Yokogawa CSU-10) and a 10x/0.3NA objective adjusted for chromatic aberration (EC Plan-Neofluar, Zeiss). Pulsed excitation (frequency = 0.5 Hz; exposure = 263 ms) was delivered at 491 nm and emitted signals recorded at 500-550 nm with a back-illuminated 16-bit EM-CCD camera (ImageEM 9100-13; Hamamatsu). During recording, islets were maintained at 35-36 °C in the presence of 50 µM JB253 using a custom-manufactured perfusion and heating system (Digital Pixel). Drugs were introduced through the perfusion system at the indicated time points and concentrations. Violet light was delivered by a 405 ± 5 nm laser coupled to the side port of the microscope and configured to fill the back of the objective with light using an Optospot (Cairn Research). Blue light was delivered using 440 ± 5 nm and 491 ± 5 nm diode lasers controlled by a laser merge module (Spectral Applied Research) to allow simultaneous exposure and acquisition. […] Signals were normalized using F/Fmin where F is fluorescence at a given timepoint and Fmin is minimum fluorescence.

[2] = system: mouse islets; experiment: Calcium imaging (fMCI) of beta cell activity in intact mouse islets; assay type: cell-based; settings: for effect of high doses on the effects of JB253 on cytosolic Ca^2+: JB253-treated mouse islets, 405 nm, n = 4-6 recordings; for EC50: mouse islets, concentration-response, read-out: EC50 for cytosolic Ca^2+ rises
Experimental: Male and female CD1 and C57BL6 mice (8-20 weeks) were maintained in a specific pathogen-free facility under a 12h light-dark cycle with ad libitum access to water and food. Animals were euthanized using a schedule-1 method and pancreatic islets isolated by collagenase digestion. All procedures were regulated by the Home Office according to the Animals (Scientific Procedures) Act 1986 of the United Kingdom (PPL 70/7349), and study approval granted by the Animal Welfare and Ethical Review Body (AWERB) of Imperial College. No randomization was used for animal experimentation, since mice were only used as tissue donors.
Islets were loaded for 30-45 min in fluo2-AM (10 µM) or for 2-5 min with X-Rhod 1 (5 µM) diluted with a mixture of DMSO (0.01%, wt/vol) and pluronic acid (0.001%, wt/vol; all Invitrogen) in a bicarbonate buffer containing in mM: 120 NaCl, 4.8 KCl, 1.25 NaH2PO4, 24 NaHCO3, 2.5 CaCl2, 1.2 MgCl2 and 5 D-glucose. fMCI was performed using a Zeiss Axiovert M200 fitted with a Nipkow spinning-disk head (Yokogawa CSU-10) and a 10x/0.3NA objective adjusted for chromatic aberration (EC Plan-Neofluar, Zeiss). Pulsed excitation (frequency = 0.5 Hz; exposure = 263 ms) was delivered at 491 nm and emitted signals recorded at 500-550 nm with a back-illuminated 16-bit EM-CCD camera (ImageEM 9100-13; Hamamatsu). During recording, islets were maintained at 35-36 °C in the presence of 50 µM JB253 using a custom-manufactured perfusion and heating system (Digital Pixel). Drugs were introduced through the perfusion system at the indicated time points and concentrations. Violet light was delivered by a 405 ± 5 nm laser coupled to the side port of the microscope and configured to fill the back of the objective with light using an Optospot (Cairn Research). Blue light was delivered using 440 ± 5 nm and 491 ± 5 nm diode lasers controlled by a laser merge module (Spectral Applied Research) to allow simultaneous exposure and acquisition. For single islet targeting, a 473 ± 5 nm laser was coupled to a custom-manufactured dichroic array (Cairn Research), allowing user-directed steering of a collimated laser spot across the field of view. Signals were normalized using F/Fmin where F is fluorescence at a given timepoint and Fmin is minimum fluorescence.
(§1) Data distribution was determined using the D'Agostino omnibus test. Non-multifactorial pairwise comparisons were made using either the Student's t-test. Interactions between multiple treatments were assessed using one-way ANOVA followed by pairwise comparisons using Bonferroni's post-hoc test. Effect sizes in islets/cells are usually sufficiently large that multiple animals/independent replication is a more important determinant of power in studies requiring statistical comparison. Non-linear regression was used to calculate the EC50 of normalized and log-transformed concentration-response curves. For [3H]-glibenclamide displacement assays, data points were fitted to the Hill equation before calculation of the halfmax value. In all cases, analysis was performed using Graphpad Prism (Graphpad Software) and IgorPro, and experimental numbers reported as independent biological replicates. No animals or data were excluded from the analysis and results were considered significant at P<0.05.

[3] = system: isolated murine islets; experiment: Insulin secretion from isolated islets (static incubation, radioimmunoassay); assay type: cell-based, mouse; settings: diazoxide 250 µM, JB253 50 µM, illumination
Experimental: Insulin secretion was measured from 6 islets per well, incubated at 37 °C for 30 min in 0.5 ml of Krebs-HEPES-bicarbonate (KHB) solution (containing in mM: 130 NaCl, 3.6 KCl, 1.5 CaCl2, 0.5 MgSO4, 0.5 NaH2PO4, 2 NaHCO3, 10 HEPES, and 0.1 % (wt/vol) BSA, pH 7.4) containing the indicated glucose concentration and tolbutamide (100 µM), glimeperide (50 µM), diazoxide (250 µM) and JB253 (50 µM). Illumination (λ = 405 ± 20 nm and 485 ± 6 nm) was performed using a Fluostar Optima microplate reader (BMG Labtech) set to deliver 30 s of light every 2 min to the designated wells. Insulin concentrations were determined in duplicate using specific radioimmunoassay (EMD Millipore).

[4] = system: Epac2A; experiment: Epac2-camps FRET imaging in HEK293t cells; assay type: cell-based; settings: HEK293t cells expressing full length Epac2-camps; JB253 as cis-JB253 (excitation 440 nm)
Experimental: For EPAC2 imaging, HEK293t were transfected with the full length construct for […] containing the cAMP and sulfonylurea binding domains (obtained from Prof. […] Excitation was delivered at 440 nm and emitted signals captured using […] filters. FRET was calculated as the ratio of Cerulean (CFP):Venus (YFP) fluorescence. Signals were normalized using R/R0 where R is the ratio at a given timepoint and R0 is the minimum ratio.

[5] = target: T1, SUR1 (Rattus norvegicus, UniProt Q09429); experiment: [3H]-glibenclamide displacement radioassay in SUR1-expressing HEK293t cells; assay type: binding; settings: displacement of [3H]-glibenclamide, SUR1-expressing HEK293t cells, n = 3
T1 construct: expressed in transfected cells; host or cells: HEK293t
T1 sequence (Q09429 whole entry): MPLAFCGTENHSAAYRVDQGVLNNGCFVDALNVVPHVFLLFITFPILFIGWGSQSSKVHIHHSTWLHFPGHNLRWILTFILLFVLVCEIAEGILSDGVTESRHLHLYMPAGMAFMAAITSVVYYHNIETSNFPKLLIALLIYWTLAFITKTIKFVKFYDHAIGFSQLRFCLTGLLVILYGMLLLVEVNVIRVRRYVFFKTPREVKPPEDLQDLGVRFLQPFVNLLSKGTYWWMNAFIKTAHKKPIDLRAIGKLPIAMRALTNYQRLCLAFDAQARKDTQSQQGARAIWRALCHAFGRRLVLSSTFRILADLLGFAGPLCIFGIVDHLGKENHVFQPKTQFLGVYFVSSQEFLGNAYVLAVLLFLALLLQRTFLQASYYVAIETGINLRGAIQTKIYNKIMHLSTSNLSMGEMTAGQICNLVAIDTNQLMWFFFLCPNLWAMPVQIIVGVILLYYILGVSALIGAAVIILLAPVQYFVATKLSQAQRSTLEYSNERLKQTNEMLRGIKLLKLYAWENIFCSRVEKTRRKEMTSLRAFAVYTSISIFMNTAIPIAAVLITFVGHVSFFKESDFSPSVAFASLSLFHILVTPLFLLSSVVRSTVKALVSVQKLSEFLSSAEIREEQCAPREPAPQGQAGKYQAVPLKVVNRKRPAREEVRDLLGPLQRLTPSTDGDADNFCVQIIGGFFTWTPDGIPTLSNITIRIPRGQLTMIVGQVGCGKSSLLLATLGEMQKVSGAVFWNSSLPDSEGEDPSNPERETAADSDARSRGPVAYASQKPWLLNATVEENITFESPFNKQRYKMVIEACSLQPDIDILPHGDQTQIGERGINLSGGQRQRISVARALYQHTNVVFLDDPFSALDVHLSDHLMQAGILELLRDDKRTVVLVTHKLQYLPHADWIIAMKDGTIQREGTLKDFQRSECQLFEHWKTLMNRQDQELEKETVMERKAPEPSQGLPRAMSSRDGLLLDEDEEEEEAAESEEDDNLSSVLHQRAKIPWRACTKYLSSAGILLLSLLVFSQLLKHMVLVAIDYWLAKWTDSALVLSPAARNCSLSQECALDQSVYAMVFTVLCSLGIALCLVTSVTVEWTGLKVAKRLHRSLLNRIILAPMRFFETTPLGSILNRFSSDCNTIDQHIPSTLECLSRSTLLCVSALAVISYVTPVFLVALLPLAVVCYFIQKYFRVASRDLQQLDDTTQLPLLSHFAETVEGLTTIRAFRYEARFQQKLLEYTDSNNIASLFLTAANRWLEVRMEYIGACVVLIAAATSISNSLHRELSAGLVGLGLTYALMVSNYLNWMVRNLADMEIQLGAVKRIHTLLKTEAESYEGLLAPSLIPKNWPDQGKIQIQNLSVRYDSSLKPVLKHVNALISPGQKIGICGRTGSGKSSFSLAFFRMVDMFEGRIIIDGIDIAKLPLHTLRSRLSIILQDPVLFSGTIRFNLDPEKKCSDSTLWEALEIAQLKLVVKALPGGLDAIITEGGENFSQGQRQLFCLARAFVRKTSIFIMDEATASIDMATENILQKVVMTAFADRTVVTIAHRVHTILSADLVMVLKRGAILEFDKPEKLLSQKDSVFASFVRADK
Experimental: SUR1-expressing HEK293t cells were harvested and washed twice in assaying buffer containing in mM: 119 NaCl, 4.7 KCl, […], 1.2 KH2PO4, 1.2 MgSO4, 5 NaHCO3, and 20 HEPES, pH 7.4. In a 96-well plate, ∼200,000 cells/well were incubated for 50 min with [3H]-glibenclamide (PerkinElmer) and different concentrations of glimepiride (Sigma-Aldrich) or JB253. Incubation was terminated by rapid filtration through Whatman GF/C filters by means of a Brandel MWXR-96 TI harvester and filters were washed 3 times with ice-cold assay buffer. Radioactivity was counted 6 h after cell and filter lysis in 200 µL Rotiszint EcoPlus (Roth) using a Packard microbeta scintillation counter (PerkinElmer).
as §1

Structure (SMILES)	effect on JB253 effects on intracellular Ca^2+ [1]	effect of high doses on the effects of JB253 on cytosolic Ca^2+ [2]	effect on light-induced insulin secretion of JB253-treated islets [3]	ΔR/R0 (decrease in FRET) [4]	IC50 [5]	EC50 [2]	IC50 ([5]; cis-state may relax thermally during washing)
CC1=NS(=O)(=O)c2cc(Cl)ccc2N1 [diazoxide, reference compound]	reversed	suppress	partially reversed				
CCC1=C(C)CN(C(=O)NCCc2ccc(S(=O)(=O)NC(=O)N[C@H]3CC[C@H](C)CC3)cc2)C1=O [glimepiride, reference compound]				0.052 AU	8.3 nM	399 nM	
CCCCNC(=O)NS(=O)(=O)c1ccc(C)cc1 [tolbutamide, reference compound]	mimicked	augment					
CCN(CC)c1ccc(/N=N\c2ccc(S(=O)(=O)NC(=O)NC3CCCCC3)cc2)cc1 [cis-JB253]						675 nM	14800 nM
